# Assay results as given in paper PMC11374673, “Discovery of isoquinoline sulfonamides as allosteric gyrase inhibitors with activity against fluoroquinolone-resistant bacteria” (Nature Chemistry, 2024).
# Where “and” joins values, the source holds several entries; their conditions need not be identical. Identical values can stand only once. Like-named read-outs stand apart in the source and are kept apart here.
# How the values were obtained:
# E. coli W3110 [1] = assay: MIC by broth microdilution; type: cell-based, Escherichia coli; conditions: Escherichia coli, W3110, WT, broth microdilution; read-out: MIC E. coli W3110
# Method in brief: (§1)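 Broth microdilution in CAMHB: twofold compound series inoculated with 100-fold-diluted bacteria from exponential growth (OD600 0.5, 37 °C); kanamycin 50 µg ml^−1 added for Keio collection strains. Overnight incubation, 37 °C, 600 r.p.m. shaking.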
# P. aeruginosa ATCC 27853 = assay: MIC by broth microdilution; type: cell-based; conditions: Pseudomonas aeruginosa, ATCC27853; read-out: MIC P. aeruginosa ATCC 27853
# Experimental: (§2) MIC was determined by broth microdilution. Single-colony cultures were grown to exponential phase (OD600 of 0.5) aerobically at 37 °C. In case of strains from the Keio collection, 50 µg ml^−1 kanamycin was supplemented to the media to ascertain a homogeneous population. The bacterial suspensions were diluted 100-fold in CAMHB and 50 µl was added to a twofold serial dilution series of test compounds (50 µl per well) in polypropylene 96-well microtitre plates to reach a volume of 100 µl. The plates were sealed with breathable membranes and incubated overnight at 37 °C with constant shaking (600 r.p.m.). The MIC was determined as the lowest concentration at which no visible bacterial growth was observed as compared with the inoculum controls from the median of a minimum of triplicates.
# A. baumannii ATCC BAA747 = assay: MIC by broth microdilution; type: cell-based; conditions: Acinetobacter baumannii, ATCCBAA747; read-out: MIC A. baumannii ATCC BAA747
# Experimental: as §2
# [2] = test system: S. aureus ATCC 29213 / ATCC BAA1717; assay: MIC by broth microdilution; type: cell-based; conditions: Staphylococcus aureus
# Experimental: as §2
# [3] = test system: clinical isolates of E. coli; assay: MIC against clinical isolates and potentiation by 4 µM PMBN; type: cell-based, Escherichia coli; conditions: for MIC: Escherichia coli
# Experimental: as §2, with “r.p.m.).” for “r.p.m.). The MIC was determined as the lowest concentration at which no visible bacterial growth was observed as compared with the inoculum controls from the median of a minimum of triplicates.”
# K. pneumoniae ATCC 29665 = assay: MIC by broth microdilution; type: cell-based, Klebsiella pneumoniae; conditions: Klebsiella pneumoniae, ATCC29665, read-out: MIC K. pneumoniae ATCC 29665
# Method in brief: as §1
# E. coli W3110 [4] = assay: Checkerboard assay with PMBN;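 on checkerboard plate reading, Average values: OD600 read after 20 h incubation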;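 on checkerboard plate reading, replicate wells: OD600 read after 20 h incubation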
compound,measurement,setting,value
O=S(=O)(NC[C@@H]1CC[C@H](c2ccc(-c3cccnc3)cc2)N1)c1cccc2cnccc12 [LEI-800],MIC,E. coli W3110 [1],3.1 µM
same,MIC,P. aeruginosa ATCC 27853,> 50 µM
same,MIC,A. baumannii ATCC BAA747,25 µM
same,MIC,[2]; read-out: MIC S. aureus ATCC 29213,> 50 µM
same,MIC,[2]; read-out: MIC S. aureus ATCC BAA1717,> 50 µM
same,FC,"[3]; E. coli 1075, fold change in MIC after 4 µM PMBN",> 4
same,MSC,"[3]; E. coli 1075, with 4 µM PMBN",12.5 µM
same,FC,"[3]; E. coli 552059.1, fold change in MIC after 4 µM PMBN",32
same,MSC,"[3]; E. coli 552059.1, with 4 µM PMBN",0.78 µM
same,FC,"[3]; E. coli 552060.1, fold change in MIC after 4 µM PMBN",16
same,MSC,"[3]; E. coli 552060.1, with 4 µM PMBN",1.5 µM
same,FC,"[3]; E. coli MVAST0072, fold change in MIC after 4 µM PMBN",16
same,MSC,"[3]; E. coli MVAST0072, with 4 µM PMBN",1.5 µM
same,FC,"[3]; E. coli NCTC13463, fold change in MIC after 4 µM PMBN",8
same,MSC,"[3]; E. coli NCTC13463, with 4 µM PMBN",0.4 µM
same,FC,"[3]; E. coli NCTC13846, fold change in MIC after 4 µM PMBN",4
same,MSC,"[3]; E. coli NCTC13846, with 4 µM PMBN",12.5 µM
same,FC,"[3]; E. coli mcr-1, fold change in MIC after addition of 4 µM PMBN",4
same,MSC,"[3]; E. coli mcr-1, with 4 µM PMBN",6.25 µM
same,MIC,[3]; CIP-resistant isolate 965 (MDR),12.5 µM
same,MIC,"[3]; CIP-resistant isolate 991, read-out: MIC",25 µM
same,MIC,"[3]; CIP-resistant isolate 1022 (ESBL), read-out: MIC",25 µM
same,MIC,"[3]; CIP-resistant isolate 1104 (MDR), read-out: MIC",25 µM
same,MIC,[3]; CIP-resistant isolate 1146 (MDR),6.25 µM
same,MIC,"[3]; CIP-resistant isolate 1175 (MDR), read-out: MIC",25 µM
same,MIC,"[3]; CIP-resistant isolate 1192 (MDR), read-out: MIC",50 µM
same,MIC,[3]; CIP-resistant isolate 1201 (MDR),12.5 µM
same,MIC,"[3]; CIP-resistant isolate 1233, read-out: MIC",12.5 µM
same,MIC,"[3]; E. coli 1075 (MDR), read-out: MIC",> 50 µM
same,MIC,"[3]; E. coli 552059.1, read-out: MIC",25 µM
same,MIC,"[3]; E. coli 552060.1, read-out: MIC",25 µM
same,MIC,"[3]; E. coli MVAST0072 (MDR), read-out: MIC",25 µM
same,MIC,"[3]; NCTC13463, E. coli NCTC13463 (ESBL), read-out: MIC",3.1 µM
same,MIC,"[3]; NCTC13846, E. coli NCTC13846 (MDR, mcr-1)",50 µM
same,FC,"[3]; isolate 965, fold-change in MIC",16
same,MSC,"[3]; isolate 965, with 4 μM PMBN",0.8 µM
same,FC,"[3]; isolate 991, fold-change in MIC",8
same,MSC,"[3]; isolate 991, with 4 μM PMBN",3.1 µM
same,FC,"[3]; isolate 1022, fold-change in MIC",16
same,MSC,"[3]; isolate 1022, with 4 μM PMBN",1.6 µM
same,FC,"[3]; isolate 1104, fold-change in MIC",16
same,MSC,"[3]; isolate 1104, with 4 μM PMBN",1.6 µM
same,FC,"[3]; isolate 1146, fold-change in MIC",8
same,MSC,"[3]; isolate 1146, with 4 μM PMBN",0.8 µM
same,FC,"[3]; isolate 1175, fold-change in MIC",8
same,MSC,"[3]; isolate 1175, with 4 μM PMBN",3.1 µM
same,FC,"[3]; isolate 1192, fold-change in MIC",16
same,MSC,"[3]; isolate 1192, with 4 μM PMBN",3.1 µM
same,FC,"[3]; isolate 1201, fold-change in MIC",8
same,MSC,"[3]; isolate 1201, with 4 μM PMBN",1.6 µM
same,FC,"[3]; isolate 1233, fold-change in MIC",8
same,MSC,"[3]; isolate 1233, with 4 μM PMBN",1.6 µM
same,MIC,K. pneumoniae ATCC 29665,6.25 µM
same,MIC,"E. coli W3110 [4]; Escherichia coli, W3110",3.13 µM
same,"checkerboard plate reading, replicate wells",E. coli W3110 [4]; LEI-800 0.0488281 µM + PMBN 0 µM,0.6247 and 0.5887 and 0.5873
same,"checkerboard plate reading, Average values",E. coli W3110 [4]; LEI-800 0.0488281 µM + PMBN 0 µM (by position),0.6003
same,"checkerboard plate reading, replicate wells",E. coli W3110 [4]; LEI-800 0.0488281 µM + PMBN 0.5 µM,0.5854 and 0.5839 and 0.7031
same,"checkerboard plate reading, Average values",E. coli W3110 [4]; LEI-800 0.0488281 µM + PMBN 0.5 µM (by position),0.5871
same,"checkerboard plate reading, replicate wells",E. coli W3110 [4]; LEI-800 0.0488281 µM + PMBN 1 µM,0.5898 and 0.5581 and 0.551
same,"checkerboard plate reading, Average values",E. coli W3110 [4]; LEI-800 0.0488281 µM + PMBN 1 µM (by position),0.5855
same,"checkerboard plate reading, replicate wells",E. coli W3110 [4]; LEI-800 0.0488281 µM + PMBN 2 µM,0.674 and 0.6137 and 0.6739
same,"checkerboard plate reading, Average values",E. coli W3110 [4]; LEI-800 0.0488281 µM + PMBN 2 µM (by position),0.6241
same,"checkerboard plate reading, replicate wells",E. coli W3110 [4]; LEI-800 0.0488281 µM + PMBN 4 µM,0.5444 and 0.5786 and 0.5784
same,"checkerboard plate reading, Average values",E. coli W3110 [4]; LEI-800 0.0488281 µM + PMBN 4 µM (by position),0.615
same,"checkerboard plate reading, replicate wells",E. coli W3110 [4]; LEI-800 0.0488281 µM + PMBN 8 µM,0.315 and 0.3156 and 0.322
same,"checkerboard plate reading, Average values",E. coli W3110 [4]; LEI-800 0.0488281 µM + PMBN 8 µM (by position),0.6041
same,"checkerboard plate reading, replicate wells",E. coli W3110 [4]; LEI-800 0.0488281 µM + PMBN 16 µM,0.3097 and 0.3235 and 0.4832
same,"checkerboard plate reading, Average values",E. coli W3110 [4]; LEI-800 0.0488281 µM + PMBN 16 µM (by position),0.5663
same,"checkerboard plate reading, replicate wells",E. coli W3110 [4]; LEI-800 0.0488281 µM + PMBN 32 µM,0.3631 and 0.3487 and 0.3575
same,"checkerboard plate reading, Average values",E. coli W3110 [4]; LEI-800 0.0488281 µM + PMBN 32 µM (by position),0.6049
